Here are results for 19 compounds from patent publication US12325676B2, “Cationic lipid compound and composition for delivery of nucleic acids and use thereof” (Shenzhen Rhegen Biotechnology Co., Ltd., priority 2022, dated 2025).

The nature of data set [1]: Encapsulation rate of mRNA-loaded lipid nanoparticles (Ribogreen kit). In kind it is physicochemical. How it is done: (§1) Luciferase mRNA was diluted in 10-100 mM citrate buffer at pH 4.0; the lipid components (cationic lipids shown in the present disclosure: DSPC:cholesterol:PEG lipids (DMG-PEG2000)) were dissolved in ethanol at a molar ratio of 50:10:38.5:1.5.
(§2) 3 mL of a mRNA buffer and 1 mL of a lipid solution were loaded into two 5 mL syringes respectively, and the syringes were installed on a microfluidic syringe pump. Chips were connected to the syringes and syringe pump flow rate was set. Clicking the start button of the syringe pump caused injection into the chip at a flow rate ratio of 3:1. Under observation of the color of the product at the exit of the chip, after discarding the first 5 milky white droplets (about 100 μL), the back-end sample was collected into an EP tube. The collected product was placed in a dialysis bag and dialyzed for 6 h (MWCO: 100 KDa) in 10 mM PBS (pH 7.4) intervals. Subsequently, after being concentrated by ultrafiltration to the desired concentration, the lipid nanoparticles were filtered through a 0.22 μm sterile filter and then stored at 4° C.
(§3) Tests were performed to calculate the encapsulation rate of the products according to the instructions of Ribogreen kit. Particle size and polydispersity index (PDI) detection as well as zeta potential analysis was performed on a Malvern Zetasizer nano instrument using standard assays.

Data set [2] can be described thus: Particle size, PDI and zeta potential of mRNA-loaded lipid nanoparticles (Malvern Zetasizer nano). In kind it is physicochemical. How it is done: as §1, §2, §3
Data set [3] deals with BALB/c mice. The experiment in a line: In vivo expression of luciferase mRNA delivered by LNP, tail intravenous injection, small animal imaging. As to conditions: Table 3, 5 μg mRNA, female BALB/c mice, DLin-MC3-DMA = 100. As to the method: LUC-mRNA-lipid nanoparticles containing 5 μg mRNA (see SEQ ID NO: 1 in the Patent Application Publication CN114380724A for the corresponding nucleotide sequence of LUC-mRNA) were injected via tail intravenous injection in 6-8 week old female BALB/c mice, prepared as in Example 19. 100 μg of D-Luciferin Potassium Salt was injected via tail intravenous injection into the mice at specific time points and assayed using the PerkinElmer Small Animal Imaging System. Fluc is commonly used in mammalian cell cultures to measure gene expression and cell viability, and it emits biological fluorescent light in the presence of the substrate […]. The basic characteristics of the mRNA used include ARCA cap structure, polyA tail length of 120 nt, and complete substitution of pseudouridine.
The effect of delivering luciferase mRNA using more cationic lipids were validated according to the methods of Example 20 and Example 21.

Data set [4] is described as follows: Particle size, PDI and zeta potential of mRNA-loaded lipid nanoparticles (Malvern Zetasizer nano). Type of data set: physicochemical. As to conditions: Table 4 batch; EPO mRNA LNP prepared as Example 20.
Data set [5] can be described thus: Encapsulation rate of mRNA-loaded lipid nanoparticles (Ribogreen kit). In kind it is physicochemical. As to conditions: Table 4 batch; EPO mRNA LNP prepared as Example 20.
Data set [6] has as its system BALB/c mice. The data set can be described thus: In vivo EPO protein expression after tail i.v. injection of EPO-mRNA LNP, serum ELISA. The following applies: 6 hours after tail i.v. injection of 20 μg EPO-mRNA-lipid nanoparticles, female Balb/c mice. As to the method:
In the example, the effects of in vivo transfection of erythropoietin (EPO) by various cationic liposomes were compared. Nanoparticles were prepared in the same manner as in Example 20, and the nucleotide sequence corresponding to the EPO mRNA used is given in CN114380724B, SEQ ID NO:2. After preparation, 20 μg of EPO-mRNA-lipid nanoparticles were injected via tail intravenous injection in 6-8 week female Balb/c mice. 6 hours later the mice were subjected to blood sampling from the eye frame. After centrifugation to separate the serum, EPO protein expression was determined using ELISA. The basic characteristics of the mRNA used include ARCA cap structure, polyA tail length of 100-120 nt, and complete substitution of pseudouridine.
A general note: An ELISA detects its analyte on a solid surface through an enzyme-linked reagent.

Setting [7] is: Table 1, Luciferase mRNA LNP, cationic lipid:DSPC:cholesterol:DMG-PEG2000 50:10:38.5:1.5 molar.
Setting [8] is: Table 3 batch, luciferase mRNA LNP prepared as Example 20.

As for `CCCCCCCCCCSCCOC(=O)CCCCCCCN(CCO)CCCCCCCC(=O)OC(CCCCCCCC)CCCCCCCC` [Compound 41], in data set [1] (setting [7]), the “Encapsulation rate (%)” value stood at 94.9%. For the same compound, in data set [2] (setting [7]), the PDI was found to be 0.17, the “Particle size (nm)” value was 123.4 nm and the “Zeta potential (mV)” value is reported as −7.02 mV.
For `CCCCCCCCCCSCCC(=O)OCCCCCN(CCCCCCCC(=O)OC(CCCCCCCC)CCCCCCCC)CCN(C)C` [Compound 57] the same measures were 94.1%, 0.24, 122.8 nm and 7.09 mV.
For `CCCCCCCCSCCOC(=O)CCCCCCCN(CCCCCCCC(=O)OC(CCCCCCCC)CCCCCCCC)CCN(C)C` [Compound 55] the same measures were 91.1%, 0.13, 102.3 nm and 7.37 mV.
Take `CCCCCCCCSCC(C)C(=O)OCCCCCN(CCO)CCCCCCCOC(=O)C(CCCCCCCC)CCCCCCCC` (centres unmarked) [Compound 44]: the “relative fluorescence intensity (%)” value in the data set on BALB/c mice [3] is recorded as 843 ± 52%. Besides, the PDI is recorded as 0.17 in data set [4], 0.21 in data set [2] (setting [7]) and 0.10 in data set [2] (setting [8]). Besides, the “Particle size (nm)” value in data set [4] was 82.5 nm; in data set [2] (setting [7]) it was 104.1 nm; in data set [2] (setting [8]) it was 71.1 nm. The “Encapsulation rate (%)” value in data set [1] (setting [7]) worked out at 96.4%; in data set [1] (setting [8]), 97.1%; in data set [5], 95.5%. The “EPO concentration” value with BALB/c mice [6] was found to be 4.89e+07 pg/mL. Also, in data set [2] (setting [7]), the “Zeta potential (mV)” value was −2.82 mV.
As to `CCCCCCCCOCC(C)C(=O)OCCCCCN(CCO)CCCCCCCOC(=O)C(CCCCCCCC)CCCCCCCC` (centres unmarked) [Compound 16], the “relative fluorescence intensity (%)” value in the data set on BALB/c mice [3] is recorded as 574 ± 102%. Moreover, the PDI was 0.12 in data set [4] and 0.20 in data set [2] (setting [8]). Further, the “Particle size (nm)” value in data set [4] came out at 75.4 nm; in data set [2] (setting [8]) it was 90.9 nm. Further, the figures for the “Encapsulation rate (%)” value in data set [1] (setting [8]) and in data set [5] were 95.6% and 96.5%, respectively. Also, the “EPO concentration” value with BALB/c mice [6] was 3.01e+07 pg/mL.
`CCCCCCCCSCC(CC)C(=O)OCCCCCN(CCO)CCCCCCCC(=O)OC(CCCCCCCC)CCCCCCCC` (centres unmarked) [Compound 36]: in data set [1] (setting [7]), the “Encapsulation rate (%)” value worked out at 93.9%. For the same compound, in data set [2] (setting [7]), the PDI was determined as 0.11, the “Particle size (nm)” value turned out to be 98.4 nm and the “Zeta potential (mV)” value was determined as 0.55 mV.
For `CCCCCCCCCCOCC(C)C(=O)OCCCCCN(CCO)CCCCCCCC(=O)OC(CCCCCCCC)CCCCCCCC` (centres unmarked) [Compound 2] the same measures were 87.8%, 0.12, 97.3 nm and 0.49 mV.
For the compound `CCCCCCCCOCC(C)C(=O)OCCCCCN(CCCCCCCC(=O)OC(CCCCCCCC)CCCCCCCC)CCN(CC)CC` (centres unmarked) [Compound 28], the “Encapsulation rate (%)” value in data set [1] (setting [7]) was 95.9%. Moreover, in data set [2] (setting [7]), the PDI is listed as 0.04, the “Particle size (nm)” value was 127.6 nm and the “Zeta potential (mV)” value amounted to 5.29 mV.
The matching figures for `CCCCCCCCOCC(CCCC)C(=O)OCCCCCN(CCO)CCCCCCCC(=O)OC(CCCCCCCC)CCCCCCCC` (centres unmarked) [Compound 6]: 63.9%, 0.17, 95.6 nm and 0.79 mV.
For `CCCCCCCCCCOCC(CC)C(=O)OCCCCCN(CCO)CCCCCCCC(=O)OC(CCCCCCCC)CCCCCCCC` (centres unmarked) [Compound 3] the same measures were 87.5%, 0.10, 113.9 nm and 1.95 mV.
The matching figures for `CCCCCCCCCCSCC(C)C(=O)OCCCCCN(CCO)CCCCCCCC(=O)OC(CCCCCCCC)CCCCCCCC` (centres unmarked) [Compound 30]: 95.7%, 0.11, 121.2 nm and −0.26 mV.
Consider `CCCCCCCCC(CCCCCCCC)C(=O)OCCCCCCCN(CCO)CCCCCCCOC(=O)C(C)CSCCCCCC` (centres unmarked) [Compound 45], for which the “relative fluorescence intensity (%)” value with BALB/c mice [3] was 559 ± 33%. For the same compound, the PDI in data set [4] and in data set [2] (setting [8]) was 0.15 in each case. The “Particle size (nm)” value in data set [4] is given as 81.0 nm; in data set [2] (setting [8]), 80.9 nm. In addition, the figures for the “Encapsulation rate (%)” value in data set [1] (setting [8]) and in data set [5] were 96.8% and 93.9%, respectively. In addition, in the data set on BALB/c mice [6], the “EPO concentration” value worked out at 3.46e+07 pg/mL.
Take `CCCCCCCCC(CCCCCCCC)OC(=O)CCCCCCCN(CCO)CCCCCCCOC(=O)C(C)COCCCCCC` (centres unmarked) [Compound 23]: the “relative fluorescence intensity (%)” value with BALB/c mice [3] turned out to be 764 ± 39%. Moreover, the PDI is 0.11 in data set [4] and 0.10 in data set [2] (setting [8]). For the same compound, the “Particle size (nm)” value in data set [4] is 81.7 nm; in data set [2] (setting [8]), 75.4 nm. Besides, the “Encapsulation rate (%)” value in data set [1] (setting [8]) is 97.0%; in data set [5], 96.5%. Further, the “EPO concentration” value with BALB/c mice [6] was found to be 4.11e+07 pg/mL.
For the compound `CCCCCCCCCCSCCC(=O)OCCCCCN(CCO)CCCCCCCC(=O)OC(CCCCCCCC)CCCCCCCC` [Compound 29], the “Encapsulation rate (%)” value in data set [1] (setting [7]) is on record as 95.6%. Besides, in data set [2] (setting [7]), the PDI is 0.03, the “Particle size (nm)” value is reported as 105.5 nm and the “Zeta potential (mV)” value was −1.31 mV.
Consider `CCCCCCCCC(CCCCCCCC)C(=O)OCCCCCCCN(CCO)CCCCCCCOC(=O)C(C)COCCCCCC` (centres unmarked) [Compound 17], for which the “relative fluorescence intensity (%)” value in the data set on BALB/c mice [3] was 686 ± 45%. Moreover, the PDI came to 0.09 in data set [4], 0.10 in data set [2] (setting [7]) and 0.11 in data set [2] (setting [8]). In addition, the “Particle size (nm)” value in data set [4] was found to be 74.0 nm; in data set [2] (setting [7]), 90.9 nm; in data set [2] (setting [8]) it was 68.2 nm. Besides, the “Encapsulation rate (%)” value in data set [1] (setting [7]) is 92.5%; in data set [1] (setting [8]) it was 97.6%; in data set [5] it was 96.9%. The “EPO concentration” value in the data set on BALB/c mice [6] is 3.25e+07 pg/mL. Besides, the “Zeta potential (mV)” value in data set [2] (setting [7]) is −0.15 mV.
For `CCCCCCCCSC(CCCCCC)C(=O)OCCCCCCN(CCO)CCCCCCOC(=O)C(CCCCCC)CCCCCCCC` (centres unmarked) [Compound 46], the “Encapsulation rate (%)” value in data set [1] (setting [7]) came out at 95.6%. Besides, in data set [2] (setting [7]), the PDI was 0.11, the “Particle size (nm)” value is 101.3 nm and the “Zeta potential (mV)” value was −4.12 mV.
The matching figures for `CCCCCCCCCCOCC(CCC)C(=O)OCCCCCN(CCO)CCCCCCCC(=O)OC(CCCCCCCC)CCCCCCCC` (centres unmarked) [Compound 4]: 83.7%, 0.21, 94.4 nm and 0.39 mV.
The matching figures for `CCCCCCCCSCC(C)C(=O)OCCCCCN(CCCO)CCCCCCCC(=O)OC(CCCCCCCC)CCCCCCCC` (centres unmarked) [Compound 48]: 92.5%, 0.10, 94.2 nm and −0.14 mV.
For `CCCCCCCCC(CCCCCCCC)OC(=O)CCCCCCCN(CCO)CCCCCCC(=O)OCCOCCCCCCC` [Compound 14] the same measures were 95.7%, 0.22, 119.0 nm and −3.27 mV.
